Source: patent US6384208B1, “Sequence directed DNA binding molecules compositions and methods” (Genelabs Technologies, Inc., priority 1991, dated 2002)
“Also recorded” adds a separate entry of the source. Like-named read-outs stand apart in the source and are kept apart here. Starred links: 1 amine or outer side, 2 acyl side, 3 side chain; linkers in the order of their positions; H or OH if unused. Positions of bridges follow the written chain, without caps; N, C: chain ends. Non-standard residues stand in square brackets, D forms with d. Residues, ends and D or L forms follow the SMILES beside them. Chains are numbered I, II in the order given. Actinocin(9to1) = Cc1c2oc3c(C)ccc(C(=O)[*:1])c3nc-2c(C(=O)[*:2])c(N)c1=O; NMeV = CN[C@H](C(=O)O)C(C)C; Sar = CNCC(=O)O

Columns and labels:
DNA = settings: cited from earlier work; for published binding constant: bulk genomic DNA (average)
[1] = tested on: oligonucleotides containing the screening sequence (SEQ ID NO:601) flanked by a test sequence (SEQ ID NO:605 to SEQ ID NO:613); assay type: binding, Herpes Simplex Virus
[2] = tested on: 256 different 4 bp sequences flanking the UL9 recognition site; assay type: binding, Herpes Simplex Virus

Molecule: calicheamicin
- reported preferred DNA binding sequence (DNA; literature): TCCT/AGGA

Molecule: Cc1c2oc3c(C)ccc(C(=O)N[C@@H]4C(=O)N[C@H](C(C)C)C(=O)N5CCC[C@H]5C(=O)N(C)CC(=O)N(C)[C@@H](C(C)C)C(=O)O[C@@H]4C)c3nc-2c(C(=O)N[C@@H]2C(=O)N[C@H](C(C)C)C(=O)N3CCC[C@H]3C(=O)N(C)CC(=O)N(C)[C@@H](C(C)C)C(=O)O[C@@H]2C)c(N)c1=O [actinomycin D, Actinomycin D] (I: T[dV]P[Sar][NMeV] / II: T[dV]P[Sar][NMeV]; ester I:1-I:C, II:1-II:C; linker I:N-II:N via Actinocin(9to1))
- test sequences at which UL9 binding to the screening sequence is preferentially disrupted [1]: preferentially disrupts the binding of UL9-COOH to the oligonucleotides UL9 CCCG (SEQ ID NO:605) and UL9 GGGC (SEQ ID NO:606); also recorded: preferentially disrupts the binding of UL9 to the oligonucleotides UL9 CCCG and UL9 GGGC
- reported preferred DNA binding sequence (DNA; literature): dGdC
- dinucleotide preference [2]: GC, particularly in the N1N2 position
- mean r % score for all oligonucleotides [2]: 67%
- overall sequence preference in the screen of all 256 sequences [2]: preference for binding GC-rich sequences; also recorded: prefers GC-rich sequences over AT-rich sequences
- position effect of a single base in the test site [2]: a single base in any particular position has little impact on the binding
- sequence binding preference [2]: a preference for binding GC-rich oligonucleotides has been observed; also recorded: this binding preference is even more apparent

Molecule: Cn1cc(NC(=O)c2cc(NC(=O)c3cc(NC=O)cn3C)cn2C)cc1C(=O)NCCC(=N)N [distamycin, Distamycin A]
- effect on DNA:protein complexes / free probe [1]: most of the DNA:protein complexes are intact (top band) with free probe appearing in the UL9 polyT and UL9 polyA lanes, and some free probe appearing in the UL9 ATAT lane; also recorded: free probe can be seen in the UL9 polyT and UL9 polyA lanes; also recorded: the DNA:protein in the polyT, UL9 polyA and UL9 ATAT lanes are near completely disrupted while some DNA:protein complexes in the other lanes persist
- test sequences at which UL9 binding to the screening sequence is preferentially disrupted [1]: preferentially disrupts binding to the test sequences UL9 polyT, UL9 polyA and, to a lesser extent, UL9ATAT; also recorded: preferentially disrupts binding to UL9 polyT, UL9 polyA and UL9 ATAT
- published binding constant (DNA): about 2×10^5 M^−1
- published binding constant (DNA; listed as dista): 200000 M⁻¹
- KA (binding to DNA) (DNA; literature): 200000 M⁻¹
- reported preferred DNA binding sequence (DNA; literature): non-alternating AT-rich sequences
- Ave. rank (actual) of the 18 sequences of the second consensus sequence [2]: 29
- Average rank (actual) of the 16 sequences of the first consensus sequence [2]: 17
- overall sequence preference in the screen of all 256 sequences [2]: preference for binding AT-rich sequences
- second consensus sequence, favoured bases and order [2]: A/G/C and G/C/A and G/C and A>G=C and C>A=G and G=C

Molecule: CS[C@H]1SC[C@H]2C(=O)N(C)[C@@H](C(C)C)C(=O)OC[C@@H](NC(=O)c3cnc4ccccc4n3)C(=O)N[C@@H](C)C(=O)N(C)[C@@H]1C(=O)N(C)[C@@H](C(C)C)C(=O)OC[C@@H](NC(=O)c1cnc3ccccc3n1)C(=O)N[C@@H](C)C(=O)N2C [echinomycin]
- reported preferred DNA binding sequence (DNA; literature): [(A/T)CGT]/[ACG(A/T)]

Molecule: COc1cccc2c1C(=O)c1c(O)c3c(c(O)c1C2=O)C[C@@](O)(C(=O)CO)C[C@@H]3O[C@H]1C[C@H](N)[C@H](O)[C@H](C)O1 [Doxorubicin]
- effect on DNA:protein complexes [1]: most DNA:protein complexes are nearly completely disrupted, with UL9 polyT and UL9ATAT showing some DNA still complexed with protein
- effect on UL9 binding to the screening sequence [1]: strongly affected; also recorded: more mildly affected; also recorded: effects similar to those observed at 15 μM were also observed
- test sequences at which UL9 binding to the screening sequence is preferentially disrupted [1]: preferentially disrupts the binding of UL9 to the oligonucleotides UL9 polyT, UL9 GGGC, oriEco2, and oriEco3
